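Method: 48-hour compound exposure of cells in 96-well plates, five concentrations, linear interpolation of endpoints. TGI: total growth inhibition.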
Experiments:
Assay in all cases: DTP human tumour cell line panel, 48 h
[1] = test system: NCI/ADR-RES ovarian
[2] = test system: SF-539 CNS
[3] = test system: MCF7 breast
[4] = test system: HS 578T breast
[5] = test system: U251 CNS
[6] = test system: MALME-3M melanoma
[7] = test system: PC-3 prostate
[8] = test system: BT-549 breast
[9] = test system: OVCAR-4 ovarian
[10] = test system: HCC-2998 colon
[11] = test system: SK-OV-3 ovarian
[12] = test system: NCI-H23 lung
[13] = test system: A549 NSCLC
[14] = test system: SF-268 CNS
[15] = test system: COLO 205 colon
[16] = test system: SNB-19 CNS
[17] = test system: HL-60(TB) leukemia
[18] = test system: SNB-75 CNS
[19] = test system: NCI-H226 lung
[20] = test system: CCRF-CEM leukemia
[21] = test system: HOP-62 NSCLC
[22] = test system: KM12 colon
[23] = test system: K-562 leukemia
[24] = test system: NCI-H460 lung
[25] = test system: OVCAR-5 ovarian
[26] = test system: UACC-257 melanoma
[27] = test system: RXF 393 renal
[28] = test system: IGROV1 ovarian
[29] = test system: HOP-92 NSCLC
[30] = test system: MOLT-4 leukemia
[31] = test system: SR leukemia
[32] = test system: TK-10 renal
[33] = test system: SK-MEL-5 melanoma
[34] = test system: ACHN renal
[35] = test system: HT29 colon
[36] = test system: CAKI-1 renal
[37] = test system: DU-145 prostate
[38] = test system: LOX IMVI melanoma
[39] = test system: OVCAR-3 ovarian
[40] = test system: A498 renal
[41] = test system: RPMI-8226 leukemia
[42] = test system: M14 melanoma
[43] = test system: SK-MEL-2 melanoma
[44] = test system: SF-295 CNS
[45] = test system: HCT-116 colon
[46] = test system: 786-0 renal
[47] = test system: MDA-MB-435
[48] = test system: SK-MEL-28 melanoma
[49] = test system: UO-31 renal
[50] = test system: SN12C renal
[51] = test system: SW-620 colon
[52] = test system: MDA-MB-231 breast
[53] = test system: NCI-H522 lung
[54] = test system: EKVX NSCLC
[55] = test system: MDA-N
[56] = test system: OVCAR-8 ovarian
[57] = test system: T-47D breast
[58] = test system: HCT-15 colon
[59] = test system: UACC-62 melanoma

`C=CC(Br)(CBr)CCC1OC1(C)C` (stereo unspecified) gave a TGI [1] of 58.7 µM, a TGI [2] of 33.9 µM and a TGI [3] of 29.9 µM. For the same molecule, the TGI [4] was 37.6 µM, the TGI [5] was 30.7 µM and the TGI [6] was 38.2 µM. It also gave a TGI [7] of 30.9 µM, a TGI [8] of 30.2 µM and a TGI [9] of 30.5 µM. The TGI [10] was 33.1 µM, the TGI [11] was 51.7 µM and the TGI [12] was 30.3 µM. For the same molecule, the TGI [13] was 64.3 µM, the TGI [14] was 31.2 µM and the TGI [15] was 36.2 µM. For the same molecule, the TGI [16] was 32.7 µM, the TGI [17] was > 100 µM and the TGI [18] was 32.3 µM. The TGI [19] was 42.6 µM, the TGI [20] was > 100 µM and the TGI [21] was 33.2 µM. The TGI [22] was 30.9 µM, the TGI [23] was > 100 µM and the TGI [24] was 28.3 µM. It also gave a TGI [25] of 33.3 µM, a TGI [26] of 27.7 µM and a TGI [27] of 21.4 µM. For the same molecule, the TGI [28] was 26.7 µM, the TGI [29] was 28.2 µM and the TGI [30] was 47.8 µM. The TGI [31] was 86.8 µM, the TGI [32] was 36.2 µM and the TGI [33] was 27.3 µM. The TGI [34] was 34.1 µM, the TGI [35] was 32.8 µM and the TGI [36] was 36.4 µM. For the same molecule, the TGI [37] was 59.8 µM, the TGI [38] was 17.8 µM and the TGI [39] was 36.8 µM. It also gave a TGI [40] of 40.2 µM, a TGI [41] of 82 µM and a TGI [42] of 29 µM. The TGI [43] was 30.6 µM, the TGI [44] was 32 µM and the TGI [45] was 30.7 µM. The TGI [46] was 29.6 µM, the TGI [47] was 31.3 µM and the TGI [48] was 30.5 µM. For the same molecule, the TGI [49] was 32.8 µM, the TGI [50] was 30.5 µM and the TGI [51] was 26.8 µM. It also gave a TGI [52] of 24.6 µM, a TGI [53] of 34.1 µM and a TGI [54] of 38.5 µM. It also gave a TGI [55] of 24.5 µM.
In the case of `CCN1CCC(O)(/C=C/c2cccc(C)c2)C(C(=O)/C=C/c2cccc(C)c2)C1` (stereo unspecified), the TGI [1] is reported as 5.99 µM, the TGI [2] is reported as 5.4 µM and the TGI [3] is reported as 6.44 µM. It also gave a TGI [4] of 4.97 µM, a TGI [5] of 3.31 µM and a TGI [56] of 10.4 µM. For the same molecule, the TGI [6] was 3.53 µM, the TGI [7] was > 25.4 µM and the TGI [9] was 13.6 µM. For the same molecule, the TGI [10] was 2.96 µM, the TGI [57] was 8.38 µM and the TGI [11] was 11.4 µM. For the same molecule, the TGI [12] was 4.95 µM, the TGI [13] was 5.97 µM and the TGI [14] was 3.44 µM. The TGI [15] was 4.67 µM, the TGI [16] was 15.4 µM and the TGI [17] was > 100 µM. For the same molecule, the TGI [18] was 7.69 µM, the TGI [19] was 5.89 µM and the TGI [58] was 6.29 µM. For the same molecule, the TGI [22] was 3.27 µM, the TGI [23] was > 29.8 µM and the TGI [24] was 4.64 µM. It also gave a TGI [25] of 6.98 µM, a TGI [26] of 7.31 µM and a TGI [27] of 3.57 µM. The TGI [59] was 3.54 µM, the TGI [28] was 4.12 µM and the TGI [29] was 7.56 µM. The TGI [30] was > 21.5 µM, the TGI [31] was > 100 µM and the TGI [32] was 3.92 µM. It also gave a TGI [33] of 3.99 µM, a TGI [34] of 2.93 µM and a TGI [35] of 3.18 µM. The TGI [36] was 4.31 µM, the TGI [37] was 13.8 µM and the TGI [38] was 5.02 µM. It also gave a TGI [39] of 12.4 µM, a TGI [40] of 4.52 µM and a TGI [41] of 4.78 µM. The TGI [42] was 7.47 µM, the TGI [43] was 5.56 µM and the TGI [44] was 4.51 µM. It also gave a TGI [45] of 6.13 µM, a TGI [46] of 5.83 µM and a TGI [47] of 4.61 µM. It also gave a TGI [48] of 4.49 µM, a TGI [49] of 3.06 µM and a TGI [50] of 7.04 µM. The TGI [51] was 7.38 µM, the TGI [52] was 11.5 µM and the TGI [53] was 4.65 µM. For the same molecule, the TGI [54] was 4.25 µM and the TGI [55] was 8.67 µM.

Source: PubChem BioAssay (NCI)
